Test results taken from US8987262B2, “Use of a beta blocker for the manufacture of a medicament for the treatment of hemangiomas” (Universite de Bordeaux, priority 2007, dated 2015).
Read-outs that look alike come from different tables or passages of the source. Values belong to the molecule of their own block, whether it stands above or below them.

Legend:
[1] = tested on: infantile capillary hemangiomas (IH); test: Treatment of infants with infantile hemangioma (case reports, Examples 1-3)
cleaved caspase-3 and 8 = test: Immuno-histochemical analysis of IH biopsy with anti-cleaved caspase-3 and 8 antibodies; design: species or system human; settings: Example 2, arm biopsy at 3 months of age
Procedure: Prednisolone treatment was progressively tapered down while the IH continued to improve. At 3 months of age a biopsy sample was obtained on the arm, showing a typical IH.
Reintroduction of propranolol treatment at 2 mg/kg/day was successful after only 24 hours.

subglottic hemangioma = settings: cited from earlier work
infantile hemangiomas = settings: cited from earlier work
HIF-1alpha and VEGF = settings: pressure-overloaded rat heart; cited from earlier work
head and neck IH = settings: oral suspension up to 4 mg/kg/day, 24 weeks; cited from earlier work
IH = settings: in vivo; cited from earlier work
[2] = Case 4, 3 mg/kg/day, stenosis at referral 90%
[3] = Case 1, 8 mg/kg/day, stenosis at referral 90%
[4] = Case 2, 8 mg/kg/day, stenosis at referral 70%
[5] = Case 3, 8 mg/kg/day, stenosis at referral 90%

hemodynamic modifications ([1]; Example 3, 7 days after onset, 2 mg/kg/day): without any hemodynamic modifications
SMILES: CC(C)NCC(O)COc1cccc2ccccc12 (racemic) [propranolol]
change of the hemangioma after onset of treatment ([1]; Example 1, baby, nasal pyramid IH, 3 mg/kg/day, the day after onset): changed in color from intense red to purple, and softened | aspect of the IH ([1]; Example 1, still under propranolol): completely flat | parotidal and axillary subcutaneous hemangiomatous components ([1]; Example 2, 2 mg/kg/d): not palpable | time to softening of the lesions after onset ([1]; Example 2, 2 mg/kg/day): 12 h | time to success after reintroduction of treatment ([1]; Example 2, 2 mg/kg/day): 24 h | change in size of hemangioma ([1]; Example 2, 2 mg/kg/day, seven days after onset): dramatic reduction in size of the subcutaneous component of the hemangioma | effect of treatment interruption ([1]; Example 2, 3-day interruption, superior eyelid and parotidal areas): mild increase in size of the hemangioma | outcome after treatment stopped ([1]; Example 2, stopped): without any re-growth of the IH | IH thickness (ultrasonography) ([1]; Example 3, 7 days after onset, versus 12 mm before): 6 mm | IH diameter (ultrasonography) ([1]; Example 3, 7 days after onset, versus 32 mm before): 21 mm | time to flattening of the lesion ([1]; Example 3, periocular IH, 2 mg/kg/day): 12 h | outcome after treatment stopped ([1]; Example 3, stopped after one month): novel increase in size of the IH | outcome after treatment stopped ([1]; Example 3, stopped at 8 months): without any rebound of the hemangioma | aspect of the IH ([1]; Example 3, treatment resumed): flat and had faded in color | treatment failure ([1]; all treated children (Examples 1-3 and seven other)): No treatment failure | cleaved caspase-3 and 8 immunostaining (proapoptotic role) (cleaved caspase-3 and 8): did not demonstrate positive immunostaining | Beta-blocker efficiency (subglottic hemangioma; [2]): success | Laryngeal stenosis during beta-blocker treatment (%) (subglottic hemangioma; [2]): 5%

SMILES: CCCC(=O)Nc1ccc(OCC(O)CNC(C)C)c(C(C)=O)c1 (centres unmarked) [Acebutolol]
overall result of study (subglottic hemangioma; 8 mg/kg/day): able to treat hemangiomas | Beta-blocker efficiency (subglottic hemangioma; [3]): Failure | Laryngeal stenosis during beta-blocker treatment (%) (subglottic hemangioma; [3]): 90% | Beta-blocker efficiency (subglottic hemangioma; [4]): success | Laryngeal stenosis during beta-blocker treatment (%) (subglottic hemangioma; [4]): 10% | Beta-blocker efficiency (subglottic hemangioma; [5]): success | Laryngeal stenosis during beta-blocker treatment (%) (subglottic hemangioma; [5]): 5%

SMILES: CC(C)(C)NC[C@H](O)COc1nsnc1N1CCOCC1 [Timolol, timolol]
Mean VAS ± Standard deviation (infantile hemangiomas; Age at treatment inititation (mos) <6): 45 ± 27 | Mean VAS ± Standard deviation (infantile hemangiomas; Age at treatment inititation (mos) >6): 47 ± 30 | Mean VAS ± Standard deviation (infantile hemangiomas; Depth of hemangioma: Deep): 32 ± 28 | Mean VAS ± Standard deviation (infantile hemangiomas; Depth of hemangioma: Superficial): 53 ± 29 | Mean VAS ± Standard deviation (infantile hemangiomas; Location: Facial): 45 ± 29 | Mean VAS ± Standard deviation (infantile hemangiomas; Location: Nonfacial): 43 ± 32 | Mean VAS ± Standard deviation (infantile hemangiomas; Timolol concentration (%) 0.1): 24 ± 29 | Mean VAS ± Standard deviation (infantile hemangiomas; Timolol concentration (%) 0.5): 48 ± 28 | Mean VAS ± Standard deviation (infantile hemangiomas; Treatment duration (mos) <3): 38 ± 28 | Mean VAS ± Standard deviation (infantile hemangiomas; Treatment duration (mos) >3): 52 ± 30 | overall result of study (infantile hemangiomas; timolol maleate 0.1% or 0.5% gel-forming solution): able to treat hemangiomas

SMILES: C[C@H]1C[C@H]2[C@@H]3CCC4=CC(=O)C=C[C@]4(C)[C@@]3(F)[C@@H](O)C[C@]2(C)[C@@]1(O)C(=O)CO [betamethasone]
cardiac sonography finding ([1]; Example 1, under systemic steroid): obstructive hypertrophic myocardiopathy

SMILES: COc1ccccc1OCCNCC(O)COc1cccc2[nH]c3ccccc3c12 (centres unmarked) [cardivedilol]
effect on HIF-1alpha and VEGF protein and mRNA (HIF-1alpha and VEGF): reverses both protein and mRNA of HIF-1alpha and VEGF to the baseline values

SMILES: CC(C)(C)NCC(O)COc1cccc2c1CC(O)C(O)C2 (centres unmarked) [nadolol]
overall result of study (head and neck IH): able to treat efficiently hemangiomas

SMILES: C[C@]12C=CC(=O)C=C1CC[C@@H]1[C@@H]2[C@@H](O)C[C@@]2(C)[C@H]1CC[C@]2(O)C(=O)CO [prednisolone]
effect on hemangioma ([1]; Example 1, one-month treatment at 3 mg/kg/day): stabilized, but nasal necrosis progressed | effect on IH ([1]; Example 2, 3 mg/kg/day 2 weeks then 5 mg/kg/day 2 weeks): continued to enlarge | CS efficiency (subglottic hemangioma; Case 1, before beta-blocker treatment, (2 mg/kg/day)): CS-persistant | CS efficiency (subglottic hemangioma; Case 2, before beta-blocker treatment, (1 mg/kg/day)): CS-dependent | CS efficiency (subglottic hemangioma; Case 3, before beta-blocker treatment, (1 mg/kg/day)): CS-dependent | CS efficiency (subglottic hemangioma; Case 4, before beta-blocker treatment, (1.5 mg/kg/day)): CS-dependent

SMILES: CC[C@]1(O)C[C@H]2CN(CCc3c([nH]c4ccccc34)[C@@](C(=O)OC)(c3cc4c(cc3OC)N(C=O)[C@H]3[C@@](O)(C(=O)OC)[C@H](OC(C)=O)[C@]5(CC)C=CCN6CC[C@]43[C@@H]65)C2)C1 [vincristine]
well-known downsides (IH): peripheral neuropathy, constipation, and hematologic toxicity
